In US20230339970A1, “CASEIN KINASE 1 DELTA MODULATORS” (priority 2020, published 2023):

Columns and labels:
[1] = molecular target: T1, human recombinant GST cleaved CSNK1D (Homo sapiens, UniProt P48730); assay: Purified Enzyme Assay (ADP-Glo CSNK1D Kinase Assay); type: biochemical; conditions: 2 nM CSNK1D; peptide substrate 150 μM; ATP 20 μM; 45 minutes at room temperature
T1 construct: GST (cleaved yes); purchased University of Dundee clone DU 19064
How it was run: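 GST-cleaved human recombinant CSNK1D phosphorylates peptide PLSRTL-pS-VASLPGL with ATP; compounds added in dose-response, 45 min at room temperature. ADP formed measured by ADP-Glo luminescence and converted to percent activity.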

[2] = molecular target: T2, human CSNK1D (Homo sapiens, UniProt P48730); assay: Whole Cell nBRET CSNK1D Binding Assay; conditions: living CHO cells stably expressing human CSNK1D tagged with nanoluciferase; NanoBret tracer 130 nM; 2 hours at 37 C
T2 construct: expressed in transfected cells
T2 sequence (P48730 whole entry): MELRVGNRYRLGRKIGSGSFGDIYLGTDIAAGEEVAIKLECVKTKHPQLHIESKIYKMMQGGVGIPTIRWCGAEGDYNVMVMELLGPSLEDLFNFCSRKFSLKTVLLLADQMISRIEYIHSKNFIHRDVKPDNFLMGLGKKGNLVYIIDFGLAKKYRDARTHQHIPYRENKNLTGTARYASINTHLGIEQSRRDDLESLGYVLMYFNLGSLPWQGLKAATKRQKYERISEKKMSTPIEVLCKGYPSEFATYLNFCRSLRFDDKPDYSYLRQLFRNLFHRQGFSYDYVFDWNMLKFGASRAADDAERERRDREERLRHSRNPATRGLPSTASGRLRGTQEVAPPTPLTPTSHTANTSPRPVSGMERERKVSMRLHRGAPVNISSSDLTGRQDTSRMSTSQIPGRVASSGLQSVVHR

T1 sequence (P48730 whole entry): as above

| IC50 [1] [nM] | IC50 [2] [nM] | Compound |
| --- | --- | --- |
| 3 | 23 | [2H]C([2H])([2H])C1(C([2H])([2H])[2H])Cn2nc(-c3ccc(F)cn3)c(-c3c(F)c(C)nc4[nH]ncc34)c2CO1 [Example 406, 3-(5-Fluoro-6-methyl-1H-pyrazolo[3,4-b]pyridin-4-yl)-2-(5-fluoropyridin-2-yl)-6,6-bis(methyl-d3)-6,7-dihydro-4H-pyrazolo[5,1-c][1,4]oxazine] |
| 5 | 74 | Cc1nc(-c2c(-c3ccc(F)cc3)nn3c2CCC(F)(F)C3)c2cn[nH]c2n1 [Example 279, 4-[6,6-Difluoro-2-(4-fluorophenyl)-5,7-dihydro-4H-pyrazolo[1,5-a]pyridin-3-yl]-6-methyl-1H-pyrazolo[3,4-d]pyrimidine] |
| 51 | 3250 | Cn1cnc(-c2nn3c(c2-c2ccnc4[nH]ncc24)COC(C)(C)C3)c1 [Example 127, 6,6-Dimethyl-2-(1-methyl-1H-imidazol-4-yl)-3-(1H-pyrazolo[3,4-b]pyridin-4-yl)-6,7-dihydro-4H-pyrazolo[5,1-c][1,4]oxazine] |
| 55 | 697 | Fc1ccc(-c2nn3c(c2-c2ccnc4[nH]ncc24)CO[C@H](C(F)(F)F)C3)cc1 [Example 100, (S)-2-(4-Fluorophenyl)-3-(1H-pyrazolo[3,4-b]pyridin-4-yl)-6-(trifluoromethyl)-6,7-dihydro-4H-pyrazolo[5,1-c][1,4]oxazine] |
| 14 | 105 | CC1(CC2COC2)CCc2c(-c3ccnc4[nH]ncc34)c(-c3ccc(F)cn3)nn2C1 (single isomer, unassigned) [Example 320, (*R)-4-(2-(5-Fluoropyridin-2-yl)-6-methyl-6-(oxetan-3-ylmethyl)-4,5,6,7-tetrahydropyrazolo[1,5-a]pyridin-3-yl)-1H-pyrazolo[3,4-b]pyridine] |
| 1 | 5 | Fc1ccc(-c2nn3c(c2-c2ccnc4[nH]ncc24)C[C@@H]2C[C@@H]23)cc1 [Example 268, (4aS,5aS)-2-(4-Fluorophenyl)-3-(1H-pyrazolo[3,4-b]pyridin-4-yl)-4,4a,5,5a-tetrahydrocyclopropa[4,5]pyrrolo[1,2-b]pyrazole] |
| 49 | 2740 | Cc1cc(-c2c(-c3ccc(F)c(C)n3)nn3c2COC(C)(C)C3)c2c(C)n[nH]c2n1 [Example 393, 3-(3,6-Dimethyl-1H-pyrazolo[3,4-b]pyridin-4-yl)-2-(5-fluoro-6-methylpyridin-2-yl)-6,6-dimethyl-6,7-dihydro-4H-pyrazolo[5,1-c][1,4]oxazine] |
| 15 | > 10000 | Fc1ccc(-c2nn3c(c2-c2ccnc4[nH]c(C(F)F)cc24)COCC3)nc1 [Example 75, 3-(2-(Difluoromethyl)-1H-pyrrolo[2,3-b]pyridin-4-yl)-2-(5-fluoropyridin-2-yl)-6,7-dihydro-4H-pyrazolo[5,1-c][1,4]oxazine] |
| 1 | 28 | CC(=O)Nc1cc(-c2c(-c3ccc(F)cc3)nn3c2OCCCC3)ccn1 [Example 215, N-(4-(2-(4-Fluorophenyl)-5,6,7,8-tetrahydropyrazolo[5,1-b][1,3]oxazepin-3-yl)pyridin-2-yl)acetamide] |
| < 0.5 | 23 | Fc1ccc(-c2nn3c(c2-c2ccnc4[nH]ncc24)OCC2(COC2)C3)cc1 [Example 210, 2-(4-Fluorophenyl)-3-(1H-pyrazolo[3,4-b]pyridin-4-yl)spiro[5,7-dihydropyrazolo[5,1-b][1,3]oxazine-6,3′-oxetane]] |
| 18 | 3060 | C[C@H]1OCCn2nc(-c3ccc(F)cn3)c(-c3ccnc4[nH]ccc34)c21 [Example 80, (R)-2-(5-Fluoropyridin-2-yl)-4-methyl-3-(1H-pyrrolo[2,3-b]pyridin-4-yl)-6,7-dihydro-4H-pyrazolo[5,1-c][1,4]oxazine] |
| 12 | 117 | Fc1ccc(-c2nn3c(c2-c2ccnc4[nH]nc(Cl)c24)CC2(C3)CC2(F)F)nc1 (single isomer, unassigned) [Example 256, (*S)-3-(3-Chloro-1H-pyrazolo[3,4-b]pyridin-4-yl)-1′,1′-difluoro-2-(5-fluoro-2-pyridyl)spiro[4,6-dihydropyrrolo[1,2-b]pyrazole-5,2′-cyclopropane]] |
| 1 | 6 | Cc1cc(-c2c(-c3ccc(F)cc3)nn3c2OCC2(COC2)C3)c2cn[nH]c2n1 [Example 211, 2′-(4-Fluorophenyl)-3′-(6-methyl-1H-pyrazolo[3,4-b]pyridin-4-yl)-5′H,7′H-spiro[oxetane-3,6′-pyrazolo[5,1-b][1,3]oxazine]] |
| 4 | 79 | Fc1ccc(-c2nn3c(c2-c2ccnc4[nH]ncc24)COC2(C3)CC2(F)F)nc1 (single isomer, unassigned) [Example 433, (*R)-1′. 1′-Difluoro-2-(5-fluoro-2-pyridyl)-3-(1H-pyrazolo[3,4-b]pyridin-4-yl)spiro[4,7-dihydropyrazolo[5,1-c][1,4]oxazine-6,2′-cyclopropane]] |
| 5 | 14 | [2H]C([2H])([2H])C1(C([2H])([2H])[2H])Cn2nc(-c3ccc(F)cn3)c(-c3cc(C)nc4[nH]nc(Cl)c34)c2CO1 [Example 405, 3-(3-Chloro-6-methyl-1H-pyrazolo[3,4-b]pyridin-4-yl)-2-(5-fluoropyridin-2-yl)-6,6-bis(methyl-d3)-6,7-dihydro-4H-pyrazolo[5,1-c][1,4]oxazine] |
| 8 | 82 | Fc1ccc(-c2nn3c(c2-c2ccnc4[nH]ncc24)CC(F)(F)CC3)cc1 [Example 46, 4-(5,5-Difluoro-2-(4-fluorophenyl)-4,5,6,7-tetrahydropyrazolo[1,5-a]pyridin-3-yl)-1H-pyrazolo[3,4-b]pyridine] |
| 235 | > 10000 | Cc1n[nH]c2nccc(-c3c(-c4ccc(F)cn4)nn4c3COC(C)(C(F)(F)F)C4)c12 (single isomer, unassigned) [Example 419, (*S)-2-(5-Fluoropyridin-2-yl)-6-methyl-3-(3-methyl-1H-pyrazolo[3,4-b]pyridin-4-yl)-6-(trifluoromethyl)-6,7-dihydro-4H-pyrazolo[5,1-c][1,4]oxazine] |
| 5 | 48 | Cc1nc2[nH]ncc2c(-c2c(-c3ccc(F)cn3)nn3c2OC[C@@H]2C[C@@H]2C3)c1F (stereo in doubt) [Example 483, (5a*S,6a*R)-3-(5-Fluoro-6-methyl-1H-pyrazolo[3,4-b]pyridin-4-yl)-2-(5-fluoropyridin-2-yl)-5a,6,6a,7-tetrahydro-5H-cyclopropa[e]pyrazolo[5,1-b][1,3]oxazepine] |
| 99 | 1490 | Fc1ccc(-c2nn3c(c2-c2ccnc4cn[nH]c24)CCC3)nc1 [Example 220, 7-[2-(5-Fluoro-2-pyridyl)-5,6-dihydro-4H-pyrrolo[1,2-b]pyrazol-3-yl]-1H-pyrazolo[4,3-b]pyridine] |
| 9 | 48 | CC1(C)CCc2c(-c3c(F)cnc4[nH]ncc34)c(-c3ccc(F)cn3)nn2C1 [Example 282, 5-Fluoro-4-[2-(5-fluoro-2-pyridyl)-6,6-dimethyl-5,7-dihydro-4H-pyrazolo[1,5-a]pyridin-3-yl]-1H-pyrazolo[3,4-b]pyridine] |
| 20 | 1040 | Cc1cnn2ccc(-c3c(-c4ccc(F)cn4)nn4c3COC(C)(C)C4)cc12 [Example 383, 2-(5-Fluoro-2-pyridyl)-6,6-dimethyl-3-(3-methylpyrazolo[1,5-a]pyridin-5-yl)-4,7-dihydropyrazolo[5,1-c][1,4]oxazine] |
| 10 | 37 | Cc1nc2[nH]nc(C)c2c(-c2c(-c3ccc(F)cn3)nn3c2CC2(C3)CC2(F)F)c1F (single isomer, unassigned) [Example 265, (*R)-1′.1′-Difluoro-3-(5-fluoro-3,6-dimethyl-1H-pyrazolo[3,4-b]pyridin-4-yl)-2-(5-fluoro-2-pyridyl)spiro[4,6-dihydropyrrolo[1,2-b]pyrazole-5,2′-cyclopropane]] |
| 1 | 2 | Fc1ccc(-c2nn3c(c2-c2ccnc4[nH]ncc24)OCC2(CC2)C3)cc1 [Example 457, 2′-(4-Fluorophenyl)-3′-(1H-pyrazolo[3,4-b]pyridin-4-yl)-5′H,7′H-spiro[cyclopropane-1,6′-pyrazolo[5,1-b][1,3]oxazine]] |
| 1 | 12 | Fc1ccc(-c2nn3c(c2-c2ccnc4[nH]ncc24)C2CCC3CC2)cc1 [Example 64, 2-(4-Fluorophenyl)-3-(1H-pyrazolo[3,4-b]pyridin-4-yl)-4,5,6,7-tetrahydro-4,7-ethanopyrazolo[1,5-a]pyridine] |
| 5 | 171 | C[C@H]1C[C@H](C)n2nc(-c3ccc(F)cn3)c(-c3ccnc4[nH]ncc34)c2O1 (single isomer, unassigned) [Example 205, (5*S,7*S)-2-(5-Fluoropyridin-2-yl)-5,7-dimethyl-3-(1H-pyrazolo[3,4-b]pyridin-4-yl)-6,7-dihydro-5H-pyrazolo[5,1-b][1,3]oxazine] |
| 9 | 137 | [2H]C([2H])([2H])C1(C([2H])([2H])[2H])Cn2nc(-c3ccc(F)cn3)c(-c3c(F)cnc4[nH]nc(C)c34)c2CO1 [Example 404, 3-(5-Fluoro-3-methyl-1H-pyrazolo[3,4-b]pyridin-4-yl)-2-(5-fluoropyridin-2-yl)-6,6-bis(methyl-d3)-6,7-dihydro-4H-pyrazolo[5,1-c][1,4]oxazine] |

| Compound | IC50 [1] [nM] | IC50 [2] [nM] |
| --- | --- | --- |
| Fc1ccc(-c2nn3c(c2-c2ccnc4[nH]ncc24)CCC(F)(F)C3)nc1 [Example 44, 4-(6,6-Difluoro-2-(5-fluoropyridin-2-yl)-4,5,6,7-tetrahydropyrazolo[1,5-a]pyridin-3-yl)-1H-pyrazolo[3,4-b]pyridine] | 16 | 296 |
